Test: Relative intake (total food intake/average body weight) of IUGR rats
Assay type: in vivo
Conditions: diet with 4.5 wt % HMO(s), vs IUGR rats control; for relative intake, period day 22-day 29: FIG. 4A/5A; for relative intake, period day 22-day 36: FIG. 4B/5B
Text: A wide group of pregnant female rats were bought from Charles River laboratories. Some of them were submitted to food restriction of 60% during the last 10 days of gestation. Immediately after birth (d=1), the born rat pups—subjects of the experiment—were split intoseveral groups: • Normal rats (reference): no IUGR (Intrauterine growth restriction) during their mothers' pregnancy (n=20). • IUGR rats (control): […] LNnT or 2FL+LNnT (in a weight ratio 2:1), see details below. All rat pups were fed from birth (d=1) up to 57 days (d=57) based on the following protocol: • day 1-day 6: all groups of rats were nursed by dam (mothers' milk only) • day 7-day 21: all rats were nursed by dam (mothers' milk only). […] To assess the efficiency of the feeding of these rats, especially tosee whether the feeding imply a healthy growth or not, several parameters were calculated, including: • the lean mass: it corresponds to the amount of weight in the body composition that is not fat. It was measured by magnetic resonance imaging. • the relative intake: it corresponds to the total food intake divided by the average body weight of a specified period. It was assessed for several periods during the entire experiment (so the total of food ingested was measured in continuous during several days to make the calculation). Significance was assessed using the […].

## CC(=O)N[C@H]1[C@H](O[C@H]2[C@@H](O)[C@@H](CO)O[C@@H](O[C@H]3[C@H](O)[C@@H](O)C(O)O[C@@H]3CO)[C@@H]2O)O[C@H](CO)[C@@H](O[C@@H]2O[C@H](CO)[C@H](O)[C@H](O)[C@H]2O)[C@@H]1O (mixture of isomers) [LNnT, lacto-N-neotetraose]
  relative intake, period day 22-day 29: significantly increased
  relative intake, period day 22-day 36: significantly increased

## 2′-fucosyllactose [2FL]
  relative intake, period day 22-day 29: significantly increased
  relative intake, period day 22-day 36: significantly increased

From patent US10609945B2, “Compositions comprising 2FL and LNnT to control food intake and growth in infants or young children” (NESTEC S.A., priority 2016, dated 2020)
